{"source": "paper PMC6155315", "about": "“Enantiomeric Aβ peptides inhibit the fluid shear stress response of PIEZO1” (Scientific Reports, 2018)", "key": {"PIEZO1 channels": {"tested_on": "PIEZO1 channels", "format": "cell-based, human", "details": "5 µM perfused, 50 mV, 60 mmHg pulses; 3 independent experiments", "experimental": "We examined whether the Aβ could inhibit PIEZO1 currents in the patch. We formed outside/out patches from the hP1 cell line and tested whether 10 µM of Aβ (1-40) or Aβ (1-42) (Peptide Method I) inhibited channel activity, a concentration that blocked the shear response.\nCell-attached and outside-out patches were used as previously described[47]. All experiments were at room temperature. Pressure or suction steps were applied to the membranes using a high speed pressure clamp (ALA)[48]. The bath solution contained (in mM): 150 KCl, 10 HEPES, 1 MgCl2, 1 CaCl2 at pH 7.4 that clamped the resting membrane potential to zero. The pipette solution was 150 mM KCl at pH 7.4.\nShown above are typical results from single patches. Left- a positive pressure pulse of 60 mmHg at 50 mV lasting 500 msec was applied to an O/O patch every 2 seconds. After 12 pulses (24 seconds, black trace is the average of 12 pulses), 10 µM of L Aβ(1-40) was applied by perfusion and activity was monitored for 30 seconds (red trace is the average of 15 pulses). […] Center- The effect of Aβ(1-42) on a different patch (identical conditions described above). 12 pressure pulses (black trace) established a baseline response. […] 6 pressure pulses (50 mV, 60 mmHg) were applied to establish the baseline response (black). […]"}, "hPIEZO1": {"molecular_target": "T1, hPIEZO1 (Homo sapiens, UniProt Q92508)", "T1 construct": "expressed in transfected cells", "T1 sequence (Q92508 whole entry)": "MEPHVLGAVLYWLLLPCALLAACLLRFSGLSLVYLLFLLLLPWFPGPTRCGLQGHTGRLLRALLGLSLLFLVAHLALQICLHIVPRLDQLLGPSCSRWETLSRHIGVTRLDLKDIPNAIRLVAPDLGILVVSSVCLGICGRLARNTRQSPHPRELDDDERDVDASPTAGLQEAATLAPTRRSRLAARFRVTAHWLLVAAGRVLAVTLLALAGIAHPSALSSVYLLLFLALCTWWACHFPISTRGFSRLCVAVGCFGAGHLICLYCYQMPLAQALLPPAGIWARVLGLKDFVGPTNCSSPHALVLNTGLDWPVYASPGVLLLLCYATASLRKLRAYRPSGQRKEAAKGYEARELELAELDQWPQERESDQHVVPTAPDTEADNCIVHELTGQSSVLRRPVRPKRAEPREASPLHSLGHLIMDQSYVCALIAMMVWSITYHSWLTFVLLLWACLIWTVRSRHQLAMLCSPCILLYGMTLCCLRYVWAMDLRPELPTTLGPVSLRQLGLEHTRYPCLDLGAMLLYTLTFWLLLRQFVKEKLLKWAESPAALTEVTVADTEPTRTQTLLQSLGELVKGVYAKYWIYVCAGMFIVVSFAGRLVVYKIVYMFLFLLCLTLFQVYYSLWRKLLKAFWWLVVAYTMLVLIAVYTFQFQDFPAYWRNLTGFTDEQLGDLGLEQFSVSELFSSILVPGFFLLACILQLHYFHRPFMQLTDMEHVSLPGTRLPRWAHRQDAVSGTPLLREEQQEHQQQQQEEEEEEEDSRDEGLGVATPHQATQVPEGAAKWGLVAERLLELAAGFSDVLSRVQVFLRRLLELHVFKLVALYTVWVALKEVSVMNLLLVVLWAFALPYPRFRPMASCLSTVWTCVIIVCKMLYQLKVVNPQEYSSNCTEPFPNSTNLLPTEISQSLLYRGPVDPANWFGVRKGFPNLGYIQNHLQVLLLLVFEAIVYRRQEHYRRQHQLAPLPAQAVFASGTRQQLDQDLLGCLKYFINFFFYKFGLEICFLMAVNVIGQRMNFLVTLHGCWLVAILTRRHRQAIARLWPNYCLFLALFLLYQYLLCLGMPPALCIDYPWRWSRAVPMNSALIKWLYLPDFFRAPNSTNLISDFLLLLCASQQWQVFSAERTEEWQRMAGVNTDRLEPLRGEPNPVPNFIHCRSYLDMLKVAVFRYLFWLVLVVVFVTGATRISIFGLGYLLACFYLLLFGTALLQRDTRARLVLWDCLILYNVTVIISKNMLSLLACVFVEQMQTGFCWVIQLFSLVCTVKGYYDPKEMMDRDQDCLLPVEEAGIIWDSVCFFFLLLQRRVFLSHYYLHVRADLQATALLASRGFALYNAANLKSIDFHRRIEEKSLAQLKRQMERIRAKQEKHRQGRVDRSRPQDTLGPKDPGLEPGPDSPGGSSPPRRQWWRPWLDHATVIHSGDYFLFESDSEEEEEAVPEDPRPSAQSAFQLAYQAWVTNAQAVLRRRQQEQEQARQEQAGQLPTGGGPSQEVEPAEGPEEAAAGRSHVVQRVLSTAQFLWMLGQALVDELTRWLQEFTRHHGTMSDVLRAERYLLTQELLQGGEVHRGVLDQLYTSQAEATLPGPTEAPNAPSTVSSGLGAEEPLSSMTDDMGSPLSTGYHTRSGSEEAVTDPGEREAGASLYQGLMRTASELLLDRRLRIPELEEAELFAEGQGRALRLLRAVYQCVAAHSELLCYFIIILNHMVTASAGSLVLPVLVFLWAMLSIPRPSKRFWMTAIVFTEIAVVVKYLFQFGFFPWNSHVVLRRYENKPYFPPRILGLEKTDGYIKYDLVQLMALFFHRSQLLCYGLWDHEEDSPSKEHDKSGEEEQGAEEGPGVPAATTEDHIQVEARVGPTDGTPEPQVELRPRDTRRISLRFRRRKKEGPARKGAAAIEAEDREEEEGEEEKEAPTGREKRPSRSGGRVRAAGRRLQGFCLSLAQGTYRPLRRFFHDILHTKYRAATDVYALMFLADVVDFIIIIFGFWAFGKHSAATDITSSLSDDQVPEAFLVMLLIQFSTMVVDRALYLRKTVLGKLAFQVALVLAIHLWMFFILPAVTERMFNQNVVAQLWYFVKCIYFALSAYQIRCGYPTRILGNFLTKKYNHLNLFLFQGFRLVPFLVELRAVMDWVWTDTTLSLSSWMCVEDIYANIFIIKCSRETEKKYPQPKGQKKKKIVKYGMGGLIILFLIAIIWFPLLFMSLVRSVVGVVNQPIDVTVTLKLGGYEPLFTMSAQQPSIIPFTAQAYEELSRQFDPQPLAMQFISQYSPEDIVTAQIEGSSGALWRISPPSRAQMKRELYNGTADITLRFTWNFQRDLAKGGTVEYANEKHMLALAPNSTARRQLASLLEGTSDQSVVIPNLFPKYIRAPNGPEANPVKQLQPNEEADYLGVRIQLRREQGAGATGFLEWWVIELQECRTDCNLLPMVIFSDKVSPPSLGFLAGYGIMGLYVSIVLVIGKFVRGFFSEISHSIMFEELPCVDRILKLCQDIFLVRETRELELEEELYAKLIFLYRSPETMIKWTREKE", "test": "Fluid shear stress assay: shear-induced [Ca2+]i increase (Fluo-4 AM) in hP1-CL cells", "format": "cell-based", "details": "for Effect on fluid shear [Ca2+]i response: hP1-CL cells; for Shear response of hP1-CL cells after cytoskeletal disruption: concentration not given", "description": "We first created a cell line that expressed a fluorescently tagged version of human PIEZO1 called hPIEZO1-1591-EGFP[5]. […] The cDNA was integrated into the genome of HEK293T cells using a lentivirus vector.\nThe microfluidic chambers had glass coverslip bottoms coated with human fibronectin (Invitrogen)[20] and fluid flow guided by PDMS channels. Cells were cultured in the chamber for 3 days, with daily medium changes. On the experimental day, chambers were rinsed with isotonic solution (75 mM NaCl, 5 mM KCl, 2 mM MgCl2, 1 mM CaCl2 and 10 mM HEPES, adjusted to 320 mOsm with mannitol). A stock of Fluo-4 AM was diluted to 5 µM in isotonic saline and incubated with cells for 10–30 min at 37C°. Chambers were then rinsed twice with isotonic solution and incubated for 8 minutes to complete Fluo-4 AM de-esterification. A single fluid shear stress pulse of ~15 dynes/cm^2 for 8–10 ms was applied to the chamber using a high-speed pressure servo (HSPC-1 from ALA). Peptide stocks were kept at 4 °C until used, dissolved to desired concentrations, and immediately added to cells.\nImages of the cellular response to shear stress were captured by an EM-CCD camera (C9100 model, Hamamatsu) at a nominal rate of 1 Hz. To quantify the response, the average intensity in the field of view was background subtracted. Image intensity was adjusted for the rate of bleaching. Each condition was repeated in four separate chambers, and the results averaged. The responses were normalized to the control experiments, and the inhibition was calculated as previously described. The data points were fit by a Hill plot with the equation:1 y=Vmax⁎x^n/(k^n+x^n) where Vmax is the maximum response, n is the Hill coefficient, and k is related to the concentration at half-maximal response."}, "HEK293T cells": {"tested_on": "HEK293T cells", "test": "Actin stress, actin force probe, in unmodified control cells", "format": "cell-based", "description": "(Panel A) HEK293T cells were monitored for 30 min to establish a baseline.\n(§1) To measure cytoskeletal stress, hP1-mCherry-CL cells were transiently transfected with cDNA encoding the cpst-actin FRET probe. The FRET ratio of […] was measured by simultaneous imaging using an image splitter. Baseline actin stress was measured at 37 °C in isotonic solution for 30 min before peptide addition (see above)."}, "hP1-mCherry-CL cells": {"tested_on": "hP1-mCherry-CL cells", "test": "Actin stress, cpst-FRET actin force probe, in PIEZO1-overexpressing cells", "format": "cell-based, human", "details": "for Effect on actin stress: 37 °C, 15 cells from 3 experiments", "excerpt": "Cell movement in the presence of PIEZO1 channels appears to rely on cytoskeletal integrity and plasticity, consistent with the ability of cytoskeletal disrupting agents to prevent PIEZO1 activation (Supplementary Fig. 4A). We examined forces within the cytoskeleton during channel inhibition. By transient transfection, we introduced a genetically encoded optical probe of actin stress (cpst-FRET) into stable hP1-mCherry-CL cells[19] (Fig. 4A), resulting in probe expression into F-actin. […] For each experiments described below, we analyzed and averaged (with SD) 15 cells from 3 different experiments. […] 10 pM of monomerized scrambled Aβ peptide (black squares) also had no effect on actin stress.\nFigure 4 D-GsMTx4 and the enantiomeric Aβ(1-40) peptides inhibit Ca^2+ entry, and increase cytoskeleton stress in hP1-mCherry-CL cells. hP1-mCherry-CL cells were transiently transfected with cDNA encoding the actin force probe to monitor peptide-induced changes to the cell’s cytoskeleton. […] Each data point is the average of 15 cells from 3 different experiments (with SD). A baseline response is established in the first 30 minutes (37 °C and 5% CO2). Addition (green bar) of D-GsMTx4 (5 uM, black squares) or monomeric enantiomeric Aβ(1-40) peptides (10 pM; L, red circles; D, blue triangles) elicits immediate increases in actin stress. […] Bath removal of extracellular Ca^2+ elicits the largest effect (40%, blue triangles). Data points are 15 cells from 3 independent experiments with SD. Panel D summarizes Aβ responses at the 60 min time point (paired t-test). […] Before and after intensities were analyzed by paired t-test ([…]). […]\nas §1"}, "hP1-CL cells": {"tested_on": "hP1-CL cells", "test": "Cell migration (wound healing) assay with peel-off PDMS barrier", "format": "cell-based, human", "details": "5 µM", "description": "PIEZO1 channels are involved in neurite extension[16] and other types of cell motility. This led us to test the effects of Aβ peptides on hP1-CL motility in a wound healing assay. Cells were grown to confluence on glass coverslips half-coated with PDMS (Polydimethylsiloxane). The PDMS layer was then peeled off allowing us to accurately measure the collective cell migration rates across the newly exposed glass surface.\nFigure 3 Aβ peptides inhibit migration of hP1-CL cells. Cell migration was measured as cell movement on glass cover slips in polystyrene dishes at 37 °C and 5% CO2. A PDMS barrier to cell growth was created on the cover slip. When cells reached confluency, the barrier was peeled off. Images of the resulting, initially sharp confluent cell boundary were captured at 0.003 Hz over 5 hours. […] Bottom left panel summarizes the mean cell migration distances as a function of time. […] Three independent experiments were averaged (SEM).\nHalf of a glass coverslip was coated with catalyzed PDMS (polydimethylsiloxane) (9:1) and allowed to harden. Cells were cultured on the complete coverslip kept in tissue culture dishes. After achieving confluency, the PDMS was peeled from the glass. The location of the front edge of the confluent cells was monitored for 5 hr at 37 C° with 5% CO2-supplemented DMEM media containing 10% bovine serum. […]"}}, "note": "Where “and” joins values, the source holds several entries; their conditions need not be identical. Equal entries are not always repeated. Positions of bridges follow the written chain, without caps; N, C: chain ends. Residues, ends and D or L forms follow the SMILES beside them.", "data": [{"compound": "CC(C)C[C@@H]1NC(=O)[C@@H](NC(=O)CN)CSSC[C@@H]2NC(=O)[C@@H]3CSSC[C@@H](C(=O)N[C@@H](CC(N)=O)C(=O)N[C@@H](Cc4ccccc4)C(=O)N[C@@H](CO)C(=O)N[C@@H](Cc4ccccc4)C(N)=O)NC(=O)[C@H](CC(C)C)NC(=O)[C@H](CCCCN)NC(=O)[C@H](Cc4ccccc4)NC(=O)[C@H](CC(C)C)NC(=O)[C@H](CCCCN)NC(=O)[C@H](CO)NC(=O)[C@H](CSSC[C@H](NC(=O)[C@H](CCCCN)NC(=O)[C@H](Cc4c[nH]c5ccccc45)NC(=O)[C@H](Cc4c[nH]c5ccccc45)NC(=O)[C@H](Cc4ccccc4)NC(=O)[C@H](CCC(=O)O)NC1=O)C(=O)N[C@@H](CC(N)=O)C(=O)N1CCC[C@H]1C(=O)N[C@@H](CC(N)=O)C(=O)N[C@@H](CC(=O)O)C(=O)N[C@@H](CC(=O)O)C(=O)N[C@@H](CCCCN)C(=O)N3)NC(=O)[C@H](CCCCN)NC(=O)[C@H](CC(C)C)NC(=O)[C@H](CCCCN)NC(=O)[C@@H]1CCCN1C(=O)[C@H](CCCNC(=N)N)NC2=O", "note": "[GsMTx4] (H-GCLEFWWKCNPNDDKCCRPKLKCSKLFKLCNFSF-NH2; disulfide 2-17, 9-23, 16-30; N-terminus and C-terminus assumed)", "values": [{"measurement": "Inhibition of PIEZO1 outside/out patch current", "setting": "PIEZO1 channels", "value": "0.67 ± 0.07"}, {"measurement": "Effect on fluid shear [Ca2+]i response", "setting": "hPIEZO1; 5 µM, Supplementary Fig. 3A", "value": "inhibited the shear stress response"}, {"measurement": "Reversibility of channel inhibition on washout", "setting": "hPIEZO1; shear stress assay, Aβ: within 20 min or with shear stress raised to 25 dynes/cm2", "value": "readily restored"}, {"measurement": "Hill coefficient", "setting": "hPIEZO1; titration of shear stress response of hP1-CL cells", "value": "1.9 and ~ 1.9"}]}, {"compound": "C=C1[C@@H](C)[C@H]2[C@H](Cc3ccccc3)NC(=O)[C@]23[C@H](OC(C)=O)/C=C/[C@@](C)(O)C(=O)[C@@H](C)C/C=C/[C@H]3[C@@H]1O", "note": "[cytochalasin D]", "values": [{"measurement": "Shear response of hP1-CL cells after cytoskeletal disruption", "setting": "hPIEZO1; Supplementary Fig. 3A", "value": "unresponsive to fluid shear"}]}, {"compound": "AEGDSHVLKEGAYMEIFDVQGHVFGGKIFRVVDLGSHNVA [scrambled L-Aβ(1-40), scrambled Aβ(1-40) peptide purchased from Anaspec, used as control]", "values": [{"measurement": "Effect on actin stress probe FRET in HEK293T cells", "setting": "HEK293T cells; concentration not given, after 30 min baseline", "value": "no change"}, {"measurement": "Effect on actin stress", "setting": "hP1-mCherry-CL cells; 10 pM monomeric peptide added after 30 min baseline", "value": "no effect"}, {"measurement": "Effect on fluid shear [Ca2+]i response", "setting": "hPIEZO1; 10 µM peptide, 4 independent experiments", "value": "lack of PIEZO1 inhibition"}]}, {"compound": "COc1cc2c(c(OC)c1OC)-c1ccc(OC)c(=O)cc1[C@@H](NC(C)=O)CC2", "note": "[colchicine]", "values": [{"measurement": "Shear response of hP1-CL cells after cytoskeletal disruption", "setting": "hPIEZO1; Supplementary Fig. 3A", "value": "unresponsive to fluid shear"}]}, {"compound": "HiLyte Aβ(1-42): L-Aβ(1-42) fluorescently labeled at the N-terminus with HiLyte (555), purchased (Anaspec) and monomerized", "values": [{"measurement": "Effect on shear stress response of the hPIEZO1 cell line", "setting": "hPIEZO1; 5 pM and 100 pM monomerized peptide, 4 independent experiments", "value": "inhibited"}, {"measurement": "Effect on PIEZO1-mediated Ca2+ response to shear stress", "setting": "hPIEZO1; 100 pM monomerized peptide, 4 independent experiments", "value": "completely inhibited"}]}, {"compound": "D-GsMTx4", "values": [{"measurement": "Effect on actin stress in HEK293T cells", "setting": "HEK293T cells; 5 µM, 15 cells from 3 experiments", "value": "no effect"}, {"measurement": "Effect on hP1-CL cell migration", "setting": "hP1-CL cells", "value": "blocked"}, {"measurement": "Slowing of cell migration", "setting": "hP1-CL cells; hP1-CL cells, 5 hr, 37 °C, 3 independent experiments", "value": "over 10 fold"}, {"measurement": "Effect on actin stress", "setting": "hP1-mCherry-CL cells; 5 µM added after 30 min baseline", "value": "increase in actin stress"}, {"measurement": "Effect on F-actin in lamellipodia", "setting": "hP1-mCherry-CL cells; actin force probe images, Fig. 4E,F, 20 lamellipodia from 4 cells", "value": "drop of F-actin tension and its retraction from the lamellipodia"}, {"measurement": "Effect on fluid shear [Ca2+]i response", "setting": "hPIEZO1; 5 µM, Supplementary Fig. 3A", "value": "complete inhibition"}]}]}
